We go through seven compounds from patent US20050054708A1, “Combinations of drugs for the treatment of neoplasms” (priority 2003, published 2005).

In data set [1] the test system is A549 cells. Description: Anti-proliferation assay (Alamar Blue metabolism).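 Note: 384-well plates, 72–80 h exposure at 37 °C, Alamar Blue fluorescence (ex 530 nm) read 3.5–5 h after dye addition, inhibition relative to mean of vehicle-only wells.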
Method: Human non-small cells lung carcinoma cells A549 (ATCC# CCL-185), were grown at 37±0.5° C. and 5% CO2 in DMEM supplemented with 10% FBS, 2 mM glutamine, 1% penicillin, and 1% streptomycin.
Stock solutions (1000×) of each compound were prepared in DMSO and stored at −20° C. Master stock plates of 2-fold or 4-fold serial dilutions of individual compounds were prepared in 384-well plates. Combination matrices of test compounds were generated from these master stock plates by dilution into growth media described above. […] The combination matrices were used immediately and discarded.
The anti-proliferation assays were performed in 384-well plates. 6.6 μL of 10× stock solutions from the combination matrices were added to 40 μL of culture media in assay wells. The tumor cells were liberated from the culture flask using a solution of 0.25% trypsin. Cells were diluted in culture media such that 3000 or 6000 cells were delivered in 20 μL of media into each assay well. Assay plates were incubated for 72-80 hours at 37° C. ±0.5° C. with 5% CO2. Twenty microliters of 20% Alamar Blue warmed to 37° C. ±0.5° C. was added to each assay well following the incubation period. Alamar Blue metabolism was quantified by the amount of fluorescence intensity 3.5-5.0 hours after addition. Quantification, using an LJL Analyst AD reader (LJL Biosystems), was taken in the middle of the well with high attenuation, a 100 msec read time, an excitation filter at 530 nm, and an emission filter at 575 nm. For some experiments, quantification was performed using a Wallac Victor^2 reader. Measurements were taken at the top of the well with stabilized energy lamp control; a 100 msec read time, an excitation filter at 530 nm, and an emission filter at 590 nm.
The percent inhibition (% I) for each well was calculated using the following formula: % I=[(avg. untreated wells−treated well)/(avg. untreated wells)]×100 The average untreated well value (avg. untreated wells) is the arithmetic mean of 40 wells from the same assay plate treated with vehicle alone.
Inhibition of proliferation was measured by anti-proliferation assay as described below after incubation with the test compound(s) for 72 hours.
The conditions of data set [2]: cited from earlier work.

Where two headings read alike, the source gives them in different places.

For `O=c1[nH]cc(F)c(=O)[nH]1` [5-Fluorouracil, 5-fluorouracil], in data set [1] (Homo sapiens, A549, read-out: Percent inhibition of Alamar Blue Metabolism, 5-fluorouracil 0.01 μM alone), the inhibition at 0.01 µM was determined as 2.9%. Also, the inhibition at 0.1 µM in data set [1] (Homo sapiens, A549, read-out: Percent inhibition of Alamar Blue Metabolism, 5-fluorouracil 0.10 μM alone) is -0.5%. For the same compound, the inhibition at 0.5 µM in data set [1] (Homo sapiens, A549, read-out: Percent inhibition of Alamar Blue Metabolism, 5-fluorouracil 0.50 μM alone) is 40.6%. In addition, the inhibition at 0.75 µM in data set [1] (Homo sapiens, A549, read-out: Percent inhibition of Alamar Blue Metabolism, 5-fluorouracil 0.75 μM alone) was determined as 64.3%. Moreover, in data set [1] (Homo sapiens, A549, read-out: Percent inhibition of Alamar Blue Metabolism, 5-fluorouracil 1.00 μM alone), the inhibition at 1 µM is 75.4%. In addition, the inhibition at 1.5 µM in data set [1] (Homo sapiens, A549, read-out: Percent inhibition of Alamar Blue Metabolism, 5-fluorouracil 1.50 μM alone) worked out at 73.6%. In data set [1] (Homo sapiens, A549, read-out: Percent inhibition of Alamar Blue Metabolism, 5-fluorouracil 2.00 μM alone), the inhibition at 2 µM was 87.2%. Besides, the inhibition at 5 µM in data set [1] (Homo sapiens, A549, read-out: Percent inhibition of Alamar Blue Metabolism, 5-fluorouracil 5.00 μM alone) is 79.8%. For the same compound, the inhibition at 10 µM in data set [1] (Homo sapiens, A549, read-out: Percent inhibition of Alamar Blue Metabolism, 5-fluorouracil 10.00 μM alone) was determined as 82.4%.

`N.N.O=C([O-])C1(C(=O)[O-])CCC1.[Pt+2]` [Carboplatin, carboplatin]: the “Percent inhibition of Alamar Blue Metabolism” value in data set [1] (carboplatin 0.15 μM alone) is listed as 5.5%; in data set [1] (carboplatin 0.30 μM alone) it was 14.5%; in data set [1] (carboplatin 0.59 μM alone), 9.8%; in data set [1] (carboplatin 1.19 μM alone), −19.0%; in data set [1] (carboplatin 2.38 μM alone), 13.9%; in data set [1] (carboplatin 4.75 μM alone), 16.4%. In addition, the “Percent inhibition of Alamar Blue Metabolism” value in data set [1] (carboplatin 9.50 μM alone) came to 35.8%; in data set [1] (carboplatin 19.00 μM alone) it was 30.5%; in data set [1] (carboplatin 38.00 μM alone), 48.7%.

Consider `COc1cccc2c1C(=O)c1c(O)c3c(c(O)c1C2=O)C[C@@](O)(C(=O)CO)C[C@@H]3O[C@H]1C[C@H](N)[C@H](O)[C@H](C)O1` [Doxorubicin, doxorubicin], for which the inhibition at 0.0008 µM in data set [1] (Homo sapiens, A549, read-out: Percent inhibition of Alamar Blue Metabolism, doxorubicin 0.0008 μM alone) came to 32%. For the same compound, the inhibition at 0.0016 µM in data set [1] (Homo sapiens, A549, read-out: Percent inhibition of Alamar Blue Metabolism, doxorubicin 0.0016 μM alone) was found to be 27.5%. The inhibition at 0.0031 µM in data set [1] (Homo sapiens, A549, read-out: Percent inhibition of Alamar Blue Metabolism, doxorubicin 0.0031 μM alone) stood at 34.4%. Besides, the inhibition at 0.0063 µM in data set [1] (Homo sapiens, A549, read-out: Percent inhibition of Alamar Blue Metabolism, doxorubicin 0.0063 μM alone) was 40.3%. In addition, in data set [1] (Homo sapiens, A549, read-out: Percent inhibition of Alamar Blue Metabolism, doxorubicin 0.0125 μM alone), the inhibition at 0.0125 µM worked out at 55.6%. The inhibition at 0.025 µM in data set [1] (Homo sapiens, A549, read-out: Percent inhibition of Alamar Blue Metabolism, doxorubicin 0.0250 μM alone) came out at 63.8%. In addition, the inhibition at 0.05 µM in data set [1] (Homo sapiens, A549, read-out: Percent inhibition of Alamar Blue Metabolism, doxorubicin 0.0500 μM alone) stood at 67.5%. Further, in data set [1] (Homo sapiens, A549, read-out: Percent inhibition of Alamar Blue Metabolism, doxorubicin 0.1000 μM alone), the inhibition at 0.1 µM was determined as 63%. In addition, in data set [1] (Homo sapiens, A549, read-out: Percent inhibition of Alamar Blue Metabolism, doxorubicin 0.2000 μM alone), the inhibition at 0.2 µM was 62.9%.

For `COc1cc([C@@H]2c3cc4c(cc3[C@@H](O[C@@H]3O[C@@H]5CO[C@@H](C)O[C@H]5[C@H](O)[C@H]3O)[C@H]3COC(=O)[C@H]23)OCO4)cc(OC)c1O` [Etoposide, etoposide], in data set [1] (Homo sapiens, A549, read-out: Percent inhibition of Alamar Blue Metabolism, etoposide 0.04 μM alone), the inhibition at 0.04 µM was 3.9%. Also, the inhibition at 0.08 µM in data set [1] (Homo sapiens, A549, read-out: Percent inhibition of Alamar Blue Metabolism, etoposide 0.08 μM alone) amounted to 46.5%. In data set [1] (Homo sapiens, A549, read-out: Percent inhibition of Alamar Blue Metabolism, etoposide 0.16 μM alone), the inhibition at 0.16 µM is 38.7%. Further, the inhibition at 0.31 µM in data set [1] (Homo sapiens, A549, read-out: Percent inhibition of Alamar Blue Metabolism, etoposide 0.31 μM alone) is 42.7%. Also, the inhibition at 0.63 µM in data set [1] (Homo sapiens, A549, read-out: Percent inhibition of Alamar Blue Metabolism, etoposide 0.63 μM alone) was 52.4%. In addition, the inhibition at 1.25 µM in data set [1] (Homo sapiens, A549, read-out: Percent inhibition of Alamar Blue Metabolism, etoposide 1.25 μM alone) turned out to be 62.8%. Also, the inhibition at 2.5 µM in data set [1] (Homo sapiens, A549, read-out: Percent inhibition of Alamar Blue Metabolism, etoposide 2.50 μM alone) came to 76.1%. The inhibition at 5 µM in data set [1] (Homo sapiens, A549, read-out: Percent inhibition of Alamar Blue Metabolism, etoposide 5.00 μM alone) came out at 77.5%. Besides, the inhibition at 10 µM in data set [1] (Homo sapiens, A549, read-out: Percent inhibition of Alamar Blue Metabolism, etoposide 10.00 μM alone) amounted to 79.4%.

With `Nc1ccn([C@@H]2O[C@H](CO)[C@@H](O)C2(F)F)c(=O)n1` [Gemcitabine, gemcitabine], in data set [1] (Homo sapiens, A549, read-out: Percent inhibition of Alamar Blue Metabolism, gemcitabine 0.00016 μM alone), the inhibition at 0.00016 µM came to 7.9%. Besides, the inhibition at 0.00033 µM in data set [1] (Homo sapiens, A549, read-out: Percent inhibition of Alamar Blue Metabolism, gemcitabine 0.00033 μM alone) came out at 19.1%. Also, the inhibition at 0.00066 µM in data set [1] (Homo sapiens, A549, read-out: Percent inhibition of Alamar Blue Metabolism, gemcitabine 0.00066 μM alone) is 11.3%. Further, the inhibition at 0.00131 µM in data set [1] (Homo sapiens, A549, read-out: Percent inhibition of Alamar Blue Metabolism, gemcitabine 0.00131 μM alone) was 12.3%. For the same compound, the inhibition at 0.00263 µM in data set [1] (Homo sapiens, A549, read-out: Percent inhibition of Alamar Blue Metabolism, gemcitabine 0.00263 μM alone) came out at 13.8%. The inhibition at 0.00525 µM in data set [1] (Homo sapiens, A549, read-out: Percent inhibition of Alamar Blue Metabolism, gemcitabine 0.00525 μM alone) came to 61.8%. The inhibition at 0.0105 µM in data set [1] (Homo sapiens, A549, read-out: Percent inhibition of Alamar Blue Metabolism, gemcitabine 0.01050 μM alone) was determined as 87.4%. Besides, in data set [1] (Homo sapiens, A549, read-out: Percent inhibition of Alamar Blue Metabolism, gemcitabine 0.02100 μM alone), the inhibition at 0.021 µM turned out to be 88.7%. For the same compound, the inhibition at 0.042 µM in data set [1] (Homo sapiens, A549, read-out: Percent inhibition of Alamar Blue Metabolism, gemcitabine 0.04200 μM alone) was found to be 89.8%.

Turning to `N=C(N)c1ccc(OCCCCCOc2ccc(C(=N)N)cc2)cc1` [Pentamidine isethionate, 4,4′-diamidino-diphenoxypentane di(β-hydroxyethanesulfonate)], the solubility entry in data set [2] (in ether, acetone, and chloroform) is “insoluble”; in data set [2] (in water and glycerin), “soluble”.

`CC[C@]1(O)C[C@@H]2CN(CCc3c([nH]c4ccccc34)[C@@](C(=O)OC)(c3cc4c(cc3OC)N(C)[C@H]3[C@@](O)(C(=O)OC)[C@H](OC(C)=O)[C@]5(CC)C=CCN6CC[C@]43[C@@H]65)C2)C1` [Vinblastine, vinblastine]: the inhibition at 0.0001 µM in data set [1] (Homo sapiens, A549, read-out: Percent inhibition of Alamar Blue Metabolism, vinblastine 0.0001 μM alone) was -22.3%. Moreover, the inhibition at 0.0002 µM in data set [1] (Homo sapiens, A549, read-out: Percent inhibition of Alamar Blue Metabolism, vinblastine 0.0002 μM alone) was -8.3%. Further, in data set [1] (Homo sapiens, A549, read-out: Percent inhibition of Alamar Blue Metabolism, vinblastine 0.0004 μM alone), the inhibition at 0.0004 µM was found to be 7.4%. Moreover, the inhibition at 0.0008 µM in data set [1] (Homo sapiens, A549, read-out: Percent inhibition of Alamar Blue Metabolism, vinblastine 0.0008 μM alone) came out at 41.5%. Besides, in data set [1] (Homo sapiens, A549, read-out: Percent inhibition of Alamar Blue Metabolism, vinblastine 0.0016 μM alone), the inhibition at 0.0016 µM came out at 48.4%. The inhibition at 0.0031 µM in data set [1] (Homo sapiens, A549, read-out: Percent inhibition of Alamar Blue Metabolism, vinblastine 0.0031 μM alone) was 61.1%. Moreover, the inhibition at 0.0063 µM in data set [1] (Homo sapiens, A549, read-out: Percent inhibition of Alamar Blue Metabolism, vinblastine 0.0063 μM alone) turned out to be 67.2%. Also, in data set [1] (Homo sapiens, A549, read-out: Percent inhibition of Alamar Blue Metabolism, vinblastine 0.0125 μM alone), the inhibition at 0.0125 µM was 77.2%. Moreover, the inhibition at 0.025 µM in data set [1] (Homo sapiens, A549, read-out: Percent inhibition of Alamar Blue Metabolism, vinblastine 0.0250 μM alone) stood at 85.5%.
